Assay results taken from patent US20250345492A1, “AN ANTIBACTERIAL POLYPEPTIDE COMPOUND, A MEDICAL DEVICE, HYDROGEL AND USE THEREOF” (priority 2020, published 2025).
Converted amounts (≈) assume the structure as drawn. Like-named read-outs stand apart in the source and are kept apart here. Peptide text beside a SMILES is read from it.

Legend:
Acute toxicity in mice = experiment: Acute toxicity in mice; set-up: species or system Kunming mice; settings: mouse, in vivo, ip, intraperitoneal injection, Karber method
Method: Acute toxicity of the compounds was determined by measuring the acute toxicity in mice with the compounds.
Taking compounds 2, 8, 9, 13 and 15 of the present invention as examples, […]. The mice used in this test were Kunming mice, which were placed in constant-temperature environment (22±1° C.) and could freely obtain water and food. Simply, 132 healthy Kunming mice were randomly divided into 11 groups, with 12 mice in each group (half male and half female), wherein, 5 groups were intraperitoneally injected with 0.2 ml of the compounds of different doses (100-1000 mg/kg), and the control group was intraperitoneally injected with normal saline. In this experiment, melittin was used as a reference control, and the other 5 groups were intraperitoneally injected with melittin of different doses (10-32 mg/kg). The state of mice was observed and recorded after 2 hours of administration, and then observed twice a day for 14 days, and the survival rates of the mice were recorded.

[1] = test system: P-4c, clinical isolated drug-resistant strain PA; settings: strain P-4c (PA)
Source text: (§1) With respect to the determination of antibacterial activity and antifungal activity of the antibacterial polypeptide compounds, the bacterial strains employed included: E. coli (ATCC 25922), E. coli (ATCC 43837), Pseudomonas aeruginosa (ATCC 27853), Klebsiella pneumoniae (ATCC 700603), Cronobacter sakazakii (ATCC 29544), Staphylococcus aureus (ATCC 29213), Bacillus subtilis (ATCC 23857) and Staphylococcus epidermidis (ATCC 12228); and the fungal strains employed included Candida albicans (ATCC 14053), Candida glabrata (ATCC 2001), Candida parapsilosis (ATCC 22019), Candida tropicalis (ATCC 750) and Candida krusei (ATCC 6258), all of which were standard strains from American Type Culture Collection. In addition, drug-resistant strains S-1a, S-2a, S-3a, S-4a, E-1b, E-2b, E-3b, E-4b, E-5b, P-1c, P-2c, P-3c, P-4c, P-5c, and clinically isolated fungal strains Candida glabrata 2-1 and Candida albicans 14-1, 14-2 and 14-3 were employed, all which were clinically isolated.
(§2) Simply, a proper amount of the cryopreserved bacterium or fungus was added to fresh MH/SD medium, and cultured on a shaker overnight at 180 rpm at 37° C. The obtained cells were seeded again and cultured on a shaker for 4-5 hours to obtain cells in logarithmic phase. The resulting cells were added to a 96-well plate (1×10^5 CFU/ml, 100 μL/well), and then 100 μL of polypeptide with different concentrations (1-256 μM) twice the final concentrations was added to corresponding well according to the 2-fold serial dilution method. The fresh medium was used as a negative control, which was prepared in triplicate for each concentration. After dosing, the 96-well plate was placed in an incubator at constant 37° C. and humidity for 12 hours to observe the results. According to naked eye observations, the concentration of the compound in the first transparent well following the turbid wells was recorded as the MIC of the compound, namely, the MIC value of the compound to the bacterium or fungus.

[2] = test system: Staphylococcus aureus (ATCC 29213)
Source text: as §1, §2

[3] = test system: Pseudomonas aeruginosa (ATCC 27853); settings: standard strain
Source text: as §1, §2

[4] = test system: E-2b, clinical isolated drug-resistant strain ESBL; settings: strain E-2b (ESBL)
Source text: as §1, §2

C. albicans ATCC14053 = test system: C. albicans ATCC14053
Source text: as §1, §2

[5] = test system: Bacillus subtilis (ATCC 23857)
Source text: as §1, §2

[6] = test system: Cronobacter sakazakii (ATCC 29544)
Source text: as §1, §2

[7] = test system: S-4a, clinical isolated drug-resistant strain MRSA; settings: strain S-4a (MRSA)
Source text: as §1, §2

[8] = test system: Staphylococcus epidermidis (ATCC 12228)
Source text: as §1, §2

[9] = test system: E-3b, clinical isolated drug-resistant strain ESBL; settings: strain E-3b (ESBL)
Source text: as §1, §2

C. glabrata ATCC22019 = test system: C. glabrata ATCC22019
Source text: as §1, §2

[10] = test system: P-3c, clinical isolated drug-resistant strain PA; settings: strain P-3c (PA)
Source text: as §1, §2

C. krusei ATCC6258 = test system: C. krusei ATCC6258
Source text: as §1, §2

[11] = test system: S-2a, clinical isolated drug-resistant strain MRSA; settings: strain S-2a (MRSA)
Source text: as §1, §2

[12] = test system: P-5c, clinical isolated drug-resistant strain PA; settings: strain P-5c (PA)
Source text: as §1, §2

[13] = test system: P-1c, clinical isolated drug-resistant strain PA; settings: strain P-1c (PA)
Source text: as §1, §2

C. parapsilosis ATCC2001 = test system: C. parapsilosis ATCC2001
Source text: as §1, §2

[14] = test system: E-1b, clinical isolated drug-resistant strain ESBL; settings: strain E-1b (ESBL)
Source text: as §1, §2

[15] = test system: E-4b, clinical isolated drug-resistant strain ESBL; settings: strain E-4b (ESBL)
Source text: as §1, §2

C. tropicalis ATCC750 = test system: C. tropicalis ATCC750
Source text: as §1, §2

[16] = test system: P-2c, clinical isolated drug-resistant strain PA; settings: strain P-2c (PA)
Source text: as §1, §2

E. coli (ATCC 25922) = test system: E. coli (ATCC 25922)
Source text: as §1, §2

[17] = test system: S-1a, clinical isolated drug-resistant strain MRSA; settings: strain S-1a (MRSA)
Source text: as §1, §2

[18] = test system: E-5b, clinical isolated drug-resistant strain ESBL; settings: strain E-5b (ESBL)
Source text: as §1, §2

[19] = test system: S-3a, clinical isolated drug-resistant strain MRSA; settings: strain S-3a (MRSA)
Source text: as §1, §2

[20] = test system: human embryonic renal epithelial cell HEK293; experiment: Cytotoxicity, MTT colorimetry; type: cell-based; settings: HEK293 cell line, MTT, 24 hours
Method: (§3) For cytotoxicity determination, the MTT colorimetry was used to evaluate the effects of the compounds on the proliferation of human cervical cancer cell Hela, human embryonic renal epithelial cell HEK293 and mouse mononuclear macrophage RAW264.7.
(§4) Taking compounds 2, 8, 9, 13 and 15 of the present invention as examples, the cytotoxicity of the antibacterial polypeptide compounds was analyzed. Three cell lines were employed for the present invention, namely human cervical cancer cell Hela, human embryonic renal epithelial cell HEK293 and mouse mononuclear macrophage RAW264.7. Hela cells were cultured in RPMI 1640 medium with 10% newborn calf serum, HEK293 cells and RAW264.7 cells were cultured in DMEM medium with 10% fetal bovine serum. Simply, cells (1×10^4 cells/well) were inoculated to a 96-well plate and incubated in an incubator set to 5% CO2 at 37° C. After 24 hours, compounds of different concentrations were added and incubated in the 5% CO2 incubator. After 24 hours, 20 μL of MTT solution with a concentration of 5 mg/mL was added to each well and incubated for 4 hours. After that, the medium was removed with a pipet, and 150 μL of DMSO added to dissolve the purple-blue formazan crystals. The solution was shaken in an oscillator for 5 mins before detecting the absorbance value at 570 nm using the ELISA reader, and then the survival rate was calculated with the formula: (OD dosing group/OD control group)×100% (n=3).

[21] = test system: mouse mononuclear macrophage RAW264.7; experiment: Cytotoxicity, MTT colorimetry; type: cell-based; settings: RAW 264.7 cell line, MTT, 24 hours
Method: as §3, §4

[22] = test system: human cervical cancer cell Hela; experiment: Cytotoxicity, MTT colorimetry; type: cell-based; settings: Hela cell line, MTT, 24 hours
Method: as §3, §4

With `CC(C)C[C@H](NC(=O)[C@H](CCCCN)NC(=O)[C@H](CC(C)C)NC(=O)[C@H](CO)NC(=O)[C@H](CC(C)C)NC(=O)[C@H](CCCN)NC(=O)[C@H](Cc1ccccc1)NC(=O)[C@@H]1CCCN1)C(N)=O` [Compound 2, Pro-Phe-Orn-Leu-Ser-Leu-Lys-Leu-NH2] (HELM PEPTIDE1{P.F.[Orn].L.S.L.K.L.[am]}$$$$V2.0) the LD50 (Acute toxicity in mice) was > 1000 mg/kg, the MIC [1] was 8 µM (≈ 7.44 µg/mL) and the “MIC S. aureus ATCC29213” value ([2]; standard strain) was 64 µM (≈ 59.5 µg/mL). For the same molecule, the “MIC P. aerugmosa ATCC27853” value [3] was 8 µM (≈ 7.44 µg/mL), the MIC [4] was 16 µM (≈ 14.9 µg/mL) and the “MIC C. albicans ATCC14053” value (C. albicans ATCC14053; fungus) was 32 µM (≈ 29.8 µg/mL). The “MIC B. subtilis ATCC23857” value ([5]; standard strain) was 16 µM (≈ 14.9 µg/mL), the “MIC C. sakazakii ATCC29544” value ([6]; standard strain) was 32 µM (≈ 29.8 µg/mL) and the MIC [7] was 64 µM (≈ 59.5 µg/mL). For the same molecule, the “MIC S. epidermidis ATCC12228” value ([8]; standard strain) was 16 µM (≈ 14.9 µg/mL), the MIC [9] was 16 µM (≈ 14.9 µg/mL) and the “MIC C. glabrata ATCC22019” value (C. glabrata ATCC22019; fungus) was 32 µM (≈ 29.8 µg/mL). For the same molecule, the MIC [10] was 8 µM (≈ 7.44 µg/mL), the “MIC C. krusei ATCC6258” value (C. krusei ATCC6258; fungus) was 32 µM (≈ 29.8 µg/mL) and the MIC [11] was 64 µM (≈ 59.5 µg/mL). The MIC [12] was 8 µM (≈ 7.44 µg/mL), the MIC [13] was 8 µM (≈ 7.44 µg/mL) and the “MIC C. parapsilosis ATCC2001” value (C. parapsilosis ATCC2001; fungus) was 16 µM (≈ 14.9 µg/mL). The MIC [14] was 16 µM (≈ 14.9 µg/mL), the MIC [15] was 8 µM (≈ 7.44 µg/mL) and the “MIC C. tropicalis ATCC750” value (C. tropicalis ATCC750; fungus) was 32 µM (≈ 29.8 µg/mL). For the same molecule, the MIC [16] was 8 µM (≈ 7.44 µg/mL), the “MIC C. coli ATCC25922” value (E. coli (ATCC 25922); standard strain) was 16 µM (≈ 14.9 µg/mL) and the MIC [17] was 64 µM (≈ 59.5 µg/mL). The MIC [18] was 8 µM (≈ 7.44 µg/mL), the MIC [19] was 64 µM (≈ 59.5 µg/mL) and the “effect on proliferation (inhibitory activity)” value (“effect … (inhibitory activity)” below) [20] was “no inhibitory activity”. The “effect … (inhibitory activity)” value [21] was “no inhibitory activity” and the “effect … (inhibitory activity)” value [22] was “no inhibitory activity”.
`CC[C@H](C)[C@H](NC(=O)CN)C(=O)NCC(=O)N[C@@H](C)C(=O)N[C@H](C(=O)N[C@@H](CC(C)C)C(=O)N[C@@H](CCCCN)C(=O)N[C@H](C(=O)N[C@@H](CC(C)C)C(=O)N[C@H](C(=O)N[C@H](C(=O)NCC(=O)N[C@@H](CC(C)C)C(=O)N1CCC[C@H]1C(=O)N[C@@H](C)C(=O)N[C@@H](CC(C)C)C(=O)N[C@H](C(=O)N[C@@H](CO)C(=O)N[C@@H](Cc1c[nH]c2ccccc12)C(=O)N[C@H](C(=O)N[C@@H](CCCCN)C(=O)N[C@@H](CCCNC(=N)N)C(=O)N[C@@H](CCCCN)C(=O)N[C@@H](CCCNC(=N)N)C(=O)N[C@@H](CCC(N)=O)C(=O)N[C@@H](CCC(N)=O)C(N)=O)[C@@H](C)CC)[C@@H](C)CC)[C@@H](C)O)[C@@H](C)O)C(C)C)C(C)C` [melittin magainin, melittin, reference compound] gave an LD50 at 14 days (Acute toxicity in mice; both sexes, Kunming) of 20 mg/kg.
For H-PFRLSLHL-NH2 [Compound 4], the “MIC S. aureus ATCC29213” value ([2]; ATCC 29213) was 128 µM, the “MIC P. aerugmosa ATCC27853” value [3] was 32 µM and the “MIC C. albicans ATCC14053” value (C. albicans ATCC14053; ATCC14053) was 32 µM. The “MIC B. subtilis ATCC23857” value ([5]; ATCC 23857) was 16 µM, the “MIC C. sakazakii ATCC29544” value ([6]; ATCC 29544) was 32 µM and the “MIC S. epidermidis ATCC12228” value ([8]; ATCC 12228) was 32 µM. The “MIC C. glabrata ATCC22019” value (C. glabrata ATCC22019; ATCC22019) was 32 µM, the “MIC C. krusei ATCC6258” value (C. krusei ATCC6258; ATCC6258) was 32 µM and the “MIC C. parapsilosis ATCC2001” value (C. parapsilosis ATCC2001; ATCC2001) was 16 µM. For the same molecule, the “MIC C. tropicalis ATCC750” value (C. tropicalis ATCC750; ATCC750) was 32 µM and the “MIC C. coli ATCC25922” value (E. coli (ATCC 25922); ATCC 25922) was 32 µM.
